Assay results taken from PubChem BioAssay (NCI).
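In this assay, cells in 96-well plates receive the compound at five concentrations for 48 hours. Endpoints are linearly interpolated between the surrounding concentrations. Abbreviation: GI50, concentration required for 50% inhibition of growth. TGI marks complete inhibition of growth.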

Assays:
Experiment in all cases: NCI-60 cell line screen, 48 h
NCI-H226 lung = tested on: NCI-H226 lung
HCC-2998 colon = tested on: HCC-2998 colon
MALME-3M melanoma = tested on: MALME-3M melanoma
M14 melanoma = tested on: M14 melanoma
A549 NSCLC = tested on: A549 NSCLC
DU-145 prostate = tested on: DU-145 prostate
MOLT-4 leukemia = tested on: MOLT-4 leukemia
CCRF-CEM leukemia = tested on: CCRF-CEM leukemia
BT-549 breast = tested on: BT-549 breast
RPMI-8226 leukemia = tested on: RPMI-8226 leukemia

Compound	GI50 (NCI-H226 lung)	TGI (NCI-H226 lung)	GI50 (HCC-2998 colon)	TGI (HCC-2998 colon)	GI50 (MALME-3M melanoma)	TGI (MALME-3M melanoma)	GI50 (M14 melanoma)	TGI (M14 melanoma)	GI50 (A549 NSCLC)	TGI (A549 NSCLC)	GI50 (DU-145 prostate)	TGI (DU-145 prostate)	GI50 (MOLT-4 leukemia)	TGI (MOLT-4 leukemia)	GI50 (CCRF-CEM leukemia)	TGI (CCRF-CEM leukemia)	GI50 (BT-549 breast)	TGI (BT-549 breast)	GI50 (RPMI-8226 leukemia)	TGI (RPMI-8226 leukemia)
CN(CSc1ccc(Cl)cc1)c1ccc(CSc2ccc(Cl)cc2)cc1	2.16 µM	6.67 µM	4.81 µM	18.3 µM	12 µM	33.1 µM	4.09 µM	14.9 µM	5.22 µM	34.4 µM	6.69 µM	25.3 µM	2.66 µM	> 100 µM	0.704 µM	> 100 µM	1.16 µM	3.6 µM	2.11 µM	> 100 µM
CC(C)OCc1cc(CN2CCN(c3cccc(Cl)c3)CC2)c(O)c2ncccc12	1.39 µM	6.56 µM	0.92 µM	11.3 µM	1.03 µM	7.33 µM			0.512 µM	11.9 µM	0.876 µM	14.7 µM	0.362 µM	3.41 µM	0.383 µM	9.89 µM	3.26 µM	19.8 µM	0.558 µM	13.3 µM
N#C/C(=C\c1ccc(F)cc1)n1nc2cccc(F)c2n1	4.64 µM	> 100 µM	7.14 µM	> 100 µM	5.03 µM	> 100 µM	3.27 µM	> 100 µM	4.01 µM	> 100 µM	3.2 µM	> 100 µM	3.09 µM	> 100 µM	3.24 µM	> 100 µM	4.72 µM	> 100 µM	3.09 µM	87.1 µM
COc1cc2c(cc1OCCCCn1c(-c3cccs3)nc3ccccc31)N=C[C@@H]1CCCN1C2=O	2.13 µM	6.51 µM	2.08 µM	4.5 µM	1.74 µM	3.27 µM	1.35 µM	2.8 µM	3.22 µM	> 100 µM	1.32 µM	6.74 µM	3.79 µM	> 100 µM	0.247 µM	1.37 µM	0.417 µM	1.2 µM	0.314 µM	1.62 µM
O=C1c2cccnc2C(=O)c2c1c(C(=O)OCCc1ccccn1)c1ccccn21	0.0277 µM	0.472 µM	0.12 µM	2.08 µM	0.0613 µM	0.924 µM	0.0262 µM	0.33 µM	0.248 µM	1.56 µM	0.0296 µM	1.22 µM	1.09 µM	> 36.7 µM	1.46 µM	> 25.9 µM	0.0671 µM	2.11 µM	0.219 µM	
CCCCN(CC)CCCCCCCCCCN1CCCc2cc(OC)ccc21	2.8 µM	8.16 µM	2.32 µM	6.38 µM	2.33 µM	4.98 µM	2.11 µM	4.99 µM	5.21 µM	20.9 µM	6.48 µM	53 µM	3.09 µM	10.5 µM	3 µM	12.5 µM	3.63 µM	12.5 µM	2.15 µM	4.79 µM
O=c1[nH]c2ccccc2n2cc3ccccc3c12	2.88 µM	13.8 µM	5.84 µM	20.8 µM	25.1 µM	46.5 µM	6.39 µM	22.9 µM	5.9 µM	32.2 µM	7.61 µM	37.7 µM	3.62 µM	8.77 µM	5.93 µM	60.5 µM	18.9 µM	64.3 µM	3.7 µM	22.6 µM
O=c1[nH]c(F)nc2c1ncn2C1OC(CO)C(O)C1O (configuration not stated)	> 100 µM	> 100 µM	> 100 µM	> 100 µM	> 100 µM	> 100 µM	> 100 µM	> 100 µM	> 100 µM	> 100 µM	> 100 µM	> 100 µM	> 100 µM	> 100 µM	> 100 µM	> 100 µM	> 100 µM	> 100 µM	> 100 µM	> 100 µM
CCN(CC)CC(O)COc1c(Br)c(Br)c(Br)c2c1OC(C)(C)C2 (configuration not stated)	13.5 µM	40.9 µM	3.42 µM	9.23 µM	2.28 µM	5.14 µM	2.01 µM	4.12 µM	3.49 µM	13.5 µM	5.43 µM	18.1 µM	1.67 µM	3.68 µM	1.96 µM	4.08 µM	4.5 µM	17.6 µM	2.01 µM	4.45 µM
Cc1cc(=O)oc2cc(OC(=O)Nc3ccccc3)ccc12		> 100 µM		> 100 µM		> 100 µM		> 100 µM		> 100 µM		> 100 µM		> 100 µM		74.2 µM		> 100 µM		62.4 µM
CC1(C)OC2C(CO)OC(n3ccc(N)nc3=O)C2O1 (configuration not stated)		> 100 µM		> 100 µM		> 100 µM		> 100 µM		> 100 µM		> 100 µM		> 100 µM		> 100 µM		> 100 µM		> 100 µM
Cn1c(NCC(CN2CCCC2)OC(=O)c2ccccc2)cc(=O)n(C)c1=O (configuration not stated)	> 100 µM	> 100 µM	> 100 µM	> 100 µM	8.69 µM	40.8 µM			> 100 µM	> 100 µM	> 100 µM	> 100 µM	> 100 µM	> 100 µM	0.0757 µM	4.06 µM	> 100 µM	> 100 µM	> 100 µM	> 100 µM
O=C(c1cccs1)c1nc2cc(Cl)ccc2[n+]([O-])c1C(F)(F)F	> 100 µM	> 100 µM	87.4 µM	> 100 µM	99 µM	> 100 µM	> 100 µM	> 100 µM	54.8 µM	> 100 µM	> 100 µM	> 100 µM	70.1 µM	> 100 µM	> 100 µM	> 100 µM	> 100 µM	> 100 µM	64 µM	> 100 µM
O=C1C=CC(=O)N1c1ccc(I)cc1		46.3 µM		35.1 µM		33.1 µM		31.2 µM		47 µM		38 µM		7.49 µM		12 µM		36 µM		22.1 µM
FC(F)(F)c1cc(-c2ncn(/C=C\c3nnco3)n2)cc(C(F)(F)F)c1	0.0383 µM	23.6 µM	0.317 µM	11.1 µM	0.102 µM	0.734 µM	0.372 µM	> 34.6 µM	0.0586 µM	> 42.3 µM	0.315 µM	22 µM	0.0284 µM	0.938 µM	0.107 µM	> 100 µM	0.0719 µM	2.44 µM	0.0336 µM	15.6 µM
CCC(C)(C)[C@H](NC(=O)[C@H]1CCCCN1C)C(=O)N(C)[C@H](C[C@@H](OC(C)=O)c1nc(C(=O)N[C@@H](Cc2ccccc2)C[C@H](C)C(=O)O)cs1)C(C)C	< 0.00167 µM	0.00743 µM	< 0.00167 µM	> 16.7 µM	< 0.00167 µM	> 16.7 µM			< 0.00167 µM	> 16.7 µM	< 0.00167 µM		< 0.00167 µM	> 16.7 µM	< 0.00167 µM	> 16.7 µM	< 0.00167 µM	0.0136 µM	< 0.00167 µM	> 16.7 µM
O=C(Cc1ccc(Nc2ccnc(C(F)(F)F)c2)cc1)N/N=C/c1ccccc1O	3.85 µM	> 55.6 µM	1.16 µM	10.8 µM	4.07 µM	> 38.4 µM	1.82 µM	19.5 µM	4.49 µM	> 100 µM	3.17 µM	> 58.1 µM	0.904 µM	7.79 µM	0.716 µM	8.31 µM	2.43 µM	> 39.2 µM	0.824 µM	16.2 µM
Cc1cc(C(O)(c2ccc(Nc3ccccc3)cc2)c2ccc(Nc3ccc(S(=O)(=O)O)cc3)cc2)ccc1N (configuration not stated)	1.63 µM	3.42 µM	1.23 µM	2.58 µM	1.58 µM	3.11 µM	1.2 µM	2.98 µM	1.55 µM	3.25 µM	1.32 µM	2.67 µM	0.445 µM	> 100 µM	0.439 µM	> 100 µM	1.84 µM	5.61 µM	0.571 µM	2.99 µM
CCCCCCc1cc2cc(-c3csc(/C=C/c4ccccc4)n3)c(=O)oc2cc1O	15.2 µM	33.4 µM	6.41 µM	29.3 µM	14.7 µM	34.6 µM			4.27 µM	19 µM	12.8 µM	44.7 µM	3.72 µM	15.1 µM	4.2 µM	15 µM	35.6 µM	> 100 µM	4.84 µM	19.7 µM
CCOC(=O)[C@@H](C)C[C@H](Cc1ccccc1)NC(=O)c1csc([C@@H](C[C@H](C(C)C)N(C)C(=O)[C@@H](NC(=O)[C@H]2C[C@H](O)CCN2C)C(C)C)OC(C)=O)n1	0.0105 µM	0.34 µM	0.00295 µM	> 16.7 µM	0.00208 µM	> 16.7 µM			0.0356 µM	> 16.7 µM	0.00421 µM		0.00714 µM	> 16.7 µM	0.00534 µM	> 16.7 µM	0.00283 µM	0.0915 µM	< 0.00167 µM	> 16.7 µM
